In paper PMC9750872, “Ras-mutant cancers are sensitive to small molecule inhibition of V-type ATPases in mice” (Nature biotechnology, 2022):
pIC50, pKd: −log10 of the molar value.

Columns and labels:
[1] = target: T1, human H subunit (ATP6V1H) (Homo sapiens, UniProt Q9UI12); experiment: Bio-layer interferometry (BLI); assay type: binding; conditions: biotinylated-249C on streptavidin sensors
T1 construct: GST (cleaved yes); host or cells: Rosetta2(DE3)pLysS (E. coli)
Description: Figure 4. […] (A) Model of the reversible assembly of V-ATPase. Cytosolic V1 subunits are depicted in blue and membrane Vo subunits in purple. Upon V-ATPase assembly, ATP is hydrolyzed to ADP accompanied by proton (H^+) pumping and luminal acidification (decrease in pH) (Created with BioRender). […] The amount of subunit B2 present in the membrane fraction indicates the amount of assembled V-ATPase. A representative Western blot is presented. […] Cells were mechanically lysed, and a fraction containing FITC-Dextran-loaded lysosomes was isolated by sedimentation centrifugation. Fluorescence was measured over time to assess pH-dependent quenching following addition of 1 mM magnesium-ATP (predetermined). […] Representative of 5 individual experiments with n = 3 for each is presented (mean ± SD) (D) Mammalian V-ATPase activity measured in the absence and presence of 1 μM 249C and 1 μM BafA1. Data shown are mean ± SD; n = 3. Bio-layer inferometry (BLI) of (E) the entire mammalian V-ATPase complex (association protein concentrations: 30, 60, 120, 240 nM) and (F) the individual human H subunit (ATP6V1H) (association protein concentrations: 16,800 and 21,000 nM) against biotinylated-249C loaded onto streptavidin sensor tips. A reference sensor was subtracted from the signal to blank the system. The ForteBio Octet® Software on the BLI system was used to calculate Kd s. […]

MEFs KRAS G12V = experiment: Cell proliferation of Ras-less MEFs expressing human KRAS/BRAF; conditions: Mus musculus
Description: (§6) Cell proliferation assays of stable cell lines treated with V-ATPase inhibitors 249C and BafA1, HCQ analog (DC661), KRASG12C inhibitor (AMG510) and autophagy inducer (CMA). For each bar, n = 3. Representative of 3 biological replicates (mean ± SD). Two-sided t-test with no adjustments for multiple comparisons.
(§7) Logarithmically growing cells were plated in antibiotic-free medium supplemented with 2% fetal bovine serum at a density of 5,000 cells per well. The next day, cells were treated in triplicates with increasing doses of in-house small molecule inhibitor drugs and a DMSO vehicle control for 3 days and subsequently assessed for cell viability by measurement of ATP with CellTiter-Glo Luminescent Cell Viability Assay (Promega). Signal intensity was read on a Glomax™ 96 Microplate Luminometer (Promega) with GLOMAX software (version 1.9.3) and percent cell survival was calculated based on the reading of vehicle control cells set as 100% using Excel (2012) and GraphPad Prism (version 6)Each compound was tested a minimum of 2 times with n = 3. All cell proliferation assays (cancer cell lines or MEFs) were done in a similar way.

DDR1 = DDR1 (Homo sapiens, UniProt Q08345); experiment: KINOMEscan Kd determination; assay type: binding; conditions: 11-point serial dilution, top 30,000 nM
Description: (§1) The KINOMEscan™ Profiling Service consisting of 468 human kinases was used to assess 249C inhibitor activity to check for off-target effects as previously described.
(§2) Supplementary Fi g u re 12: Compound 249C assessed for off-target effects using the KIN OME scanTM screening platform. (A) Selectivity (S-score) for 249C wher e the sco re is a qu antitative measu re o f compound selectivity against human kinases. It is calculate b y dividing the number of k inases that compounds bi nd to b y the total number of distinct kinases tested, excluding mutant variants (S = number of hits / number of assa ys). 1 hit out of >400 kinases is reported for test compound (249C) = 0.002. S(35) = number of non- mutant kinases with % ctrl <35/number of non- mutant kinases; (B) Kinome interaction map for 249C at 10,000 nM. Each red dot indicates a kinase found to bind, where larger dots indicate higher affinit y interactions.
(§3) 1 Tyrosine Kinase (TK) out of >400 kinases ( created in TREEspotTM ) with low affinity. This is calculated using
(§4) Dissociation constants (Kds) were determined using 249C at 30,000 nM, Hill slopes were set to - 1 and curves were fitted using a non- linear least square fit with the […]
(§5) (1 picture or pasted object on this page, not shown here)

DDR2 = DDR2 (Homo sapiens, UniProt Q16832); experiment: KINOMEscan Kd determination; assay type: binding; conditions: 11-point serial dilution, top 30,000 nM
Description: as §1, §2, §3, §4, §5

MEFs KRAS G12D = experiment: Cell proliferation of Ras-less MEFs expressing human KRAS/BRAF; conditions: Mus musculus
Description: as §7

MEFs BRAFV600E = experiment: as above; conditions: Mus musculus
Description: as §6, §7

T1 sequence (Q9UI12 whole entry): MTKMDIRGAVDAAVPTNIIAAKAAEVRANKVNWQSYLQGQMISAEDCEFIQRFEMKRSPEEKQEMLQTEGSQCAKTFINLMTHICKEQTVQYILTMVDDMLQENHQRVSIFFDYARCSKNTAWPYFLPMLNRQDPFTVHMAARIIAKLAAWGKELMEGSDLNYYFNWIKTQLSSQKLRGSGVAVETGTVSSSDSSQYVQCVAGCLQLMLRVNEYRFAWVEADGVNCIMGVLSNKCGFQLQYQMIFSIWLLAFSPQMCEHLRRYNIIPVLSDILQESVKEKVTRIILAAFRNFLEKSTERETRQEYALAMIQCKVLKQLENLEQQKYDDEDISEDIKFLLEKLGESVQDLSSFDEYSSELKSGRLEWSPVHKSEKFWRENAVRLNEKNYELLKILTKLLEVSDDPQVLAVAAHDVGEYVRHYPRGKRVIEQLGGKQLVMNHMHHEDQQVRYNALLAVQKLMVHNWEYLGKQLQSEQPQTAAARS
Chain of DDR2 (Q16832 22-855): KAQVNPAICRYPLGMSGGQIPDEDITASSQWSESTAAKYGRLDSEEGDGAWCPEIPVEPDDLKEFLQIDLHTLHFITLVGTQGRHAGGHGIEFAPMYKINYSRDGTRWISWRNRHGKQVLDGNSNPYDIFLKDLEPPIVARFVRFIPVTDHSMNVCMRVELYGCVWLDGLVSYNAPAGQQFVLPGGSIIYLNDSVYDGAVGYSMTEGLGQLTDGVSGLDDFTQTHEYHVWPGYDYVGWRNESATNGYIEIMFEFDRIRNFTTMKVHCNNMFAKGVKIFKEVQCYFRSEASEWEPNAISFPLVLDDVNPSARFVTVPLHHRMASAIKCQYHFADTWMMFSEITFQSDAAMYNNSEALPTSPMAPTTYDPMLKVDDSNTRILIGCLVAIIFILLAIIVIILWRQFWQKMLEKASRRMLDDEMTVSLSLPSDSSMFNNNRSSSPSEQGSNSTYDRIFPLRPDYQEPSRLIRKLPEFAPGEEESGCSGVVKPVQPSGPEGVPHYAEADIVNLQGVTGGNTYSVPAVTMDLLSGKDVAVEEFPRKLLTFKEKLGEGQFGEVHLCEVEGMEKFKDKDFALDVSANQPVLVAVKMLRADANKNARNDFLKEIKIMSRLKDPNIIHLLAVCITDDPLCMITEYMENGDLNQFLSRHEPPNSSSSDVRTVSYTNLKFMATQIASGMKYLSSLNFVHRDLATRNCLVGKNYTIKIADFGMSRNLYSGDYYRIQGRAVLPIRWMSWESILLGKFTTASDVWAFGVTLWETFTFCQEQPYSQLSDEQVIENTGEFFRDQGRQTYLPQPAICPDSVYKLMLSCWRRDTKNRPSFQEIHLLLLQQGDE
Chain of DDR1 (Q08345 19-913): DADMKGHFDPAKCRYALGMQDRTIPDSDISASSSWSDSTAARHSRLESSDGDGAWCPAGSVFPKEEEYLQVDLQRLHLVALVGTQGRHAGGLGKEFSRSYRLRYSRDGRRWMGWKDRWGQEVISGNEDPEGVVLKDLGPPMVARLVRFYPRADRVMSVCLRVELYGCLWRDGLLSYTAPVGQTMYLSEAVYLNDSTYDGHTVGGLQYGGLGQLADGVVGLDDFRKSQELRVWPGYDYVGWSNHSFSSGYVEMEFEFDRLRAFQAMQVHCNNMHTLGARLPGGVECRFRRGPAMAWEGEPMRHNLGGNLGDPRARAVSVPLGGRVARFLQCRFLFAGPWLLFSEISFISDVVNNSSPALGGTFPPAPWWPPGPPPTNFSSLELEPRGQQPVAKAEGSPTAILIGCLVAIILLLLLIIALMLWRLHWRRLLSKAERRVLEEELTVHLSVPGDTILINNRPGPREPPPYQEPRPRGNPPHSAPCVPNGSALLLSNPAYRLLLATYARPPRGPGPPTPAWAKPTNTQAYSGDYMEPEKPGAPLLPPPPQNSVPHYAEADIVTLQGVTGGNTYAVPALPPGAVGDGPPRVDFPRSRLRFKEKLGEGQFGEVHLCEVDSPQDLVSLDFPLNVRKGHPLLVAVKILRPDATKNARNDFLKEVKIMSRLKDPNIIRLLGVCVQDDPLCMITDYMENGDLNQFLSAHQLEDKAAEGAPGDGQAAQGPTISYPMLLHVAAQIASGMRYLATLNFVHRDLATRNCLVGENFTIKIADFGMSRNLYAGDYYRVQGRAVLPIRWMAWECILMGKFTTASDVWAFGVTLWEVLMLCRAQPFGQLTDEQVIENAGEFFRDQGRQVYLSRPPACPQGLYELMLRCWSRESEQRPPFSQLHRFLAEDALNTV

Work on `CN1CCOC(CNC(=O)C2(C)C(c3ccc(Cl)o3)C(c3ccc(F)cc3F)=NN2c2ccc(F)cc2F)C1` (stereo not drawn) [Compound 249C] yielded a pKd [1] of 6.30, a pIC50 (MEFs KRAS G12V) of 6.82 and a pKd (DDR1) of 5.27. For the same molecule, the pKd (DDR2) was 4.80, the pIC50 (MEFs KRAS G12D) was 6.52 and the pIC50 (MEFs BRAFV600E) was 6.96.
